Laboratory results reported in PMC2670776 (Hepatology (Baltimore, Md.), 2009).
Where a SMILES comes first, the peptide text is derived from it. The star is where a group is joined. Cbz = O=C(OCc1ccccc1)*

Assays:
proteasome [1] = test: Proteasome chymotrypsin-like; type: cell-based, mouse; conditions: HepB5 cells, 48 hr
SIINFEKL-H2Kb complex [2] = test: Presentation of […]-H2Kb complex on HepB5 cells; type: cell-based, mouse; conditions: for SIINFEKL-H2Kb presentation compared with controls: IFNγ-pretreated HepB5 cells, 1 hr
proteasome [3] = test: Hydrolysis of […]-TE by cytosolic fractions of HepB5 cells; type: biochemical, mouse
SIINFEKL-H2Kb complex [4] = test: Presentation of SIINFEKL-H2Kb complex on primary hepatocytes
proteasome [5] = test: Proteasome activity in primary hepatocytes
HepB5 cells = test: Acetaldehyde level in medium by head space gas chromatography; type: cell-based, mouse; conditions: HepB5 cells incubated with ethanol and DAS, 20 μM; culture medium
LMP2 = conditions: HepB5 cells, IFNγ 10 ng/ml and ethanol 50 mM, 48 hr; normalized to β-actin
ADH = ADH (Mus musculus, UniProt P00329); conditions: HepB5 cells exposed to ethanol for 48 hr; total cell lysates
PA28 = conditions: HepB5 cells, IFNγ 10 ng/ml and ethanol 50 mM, 48 hr; normalized to β-actin
STAT1 [6] = conditions: HepB5 cells, ethanol 48 hr then IFNγ 1 hr; nuclear extracts; 3 experiments
STAT1 [7] = conditions: HepB5 cells, ethanol treatment then IFNγ; data not shown
H2Kb = H2Kb expression on HepB5 cells; type: cell-based, mouse; conditions: HepB5 cells after 24-hr IFNγ exposure; flow cytometric analysis
[8] = 50 mM ethanol 18 hr, without IFNγ

Sequence of ADH (P00329 whole entry): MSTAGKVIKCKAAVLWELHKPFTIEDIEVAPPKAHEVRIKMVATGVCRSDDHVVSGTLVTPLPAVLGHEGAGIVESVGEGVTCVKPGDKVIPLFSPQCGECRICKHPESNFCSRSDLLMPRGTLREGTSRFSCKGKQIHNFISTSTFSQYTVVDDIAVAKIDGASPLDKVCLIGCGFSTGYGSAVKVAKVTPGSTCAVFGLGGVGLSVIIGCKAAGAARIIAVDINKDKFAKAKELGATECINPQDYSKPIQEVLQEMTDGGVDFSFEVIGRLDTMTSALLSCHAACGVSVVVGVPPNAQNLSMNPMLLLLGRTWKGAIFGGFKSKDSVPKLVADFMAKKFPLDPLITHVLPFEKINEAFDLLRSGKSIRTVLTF

What does the source list for `Cc1cn[nH]c1` [4MP, 4-methylpyrazole, reference compound]?
Cht-L proteasome activity, cells incubated with ethanol and 4MP (proteasome [1]; 50 mM ethanol + 4MP 2 mM): unaffected; Suppressive effects of ethanol on SIINFEKL-H2Kb presentation (SIINFEKL-H2Kb complex [2]; IFNγ-treated HepB5 cells, 50 mM ethanol with 4 MP in culture medium): blocked; Inhibitory effect of ethanol on peptide cleavage after ethanol and 4MP (proteasome [3]; cytosols of HepB5 cells incubated with 50 mM ethanol and 4MP 2 mM): partially reversed; Ethanol-elicited reduction in SIINFEKL-H2Kb presentation (SIINFEKL-H2Kb complex [4]; 50 mM ethanol + 4MP 2 mM): partially prevented; Ethanol-elicited reduction in proteasome activity (proteasome [5]; 50 mM ethanol + 4MP 2 mM): partially prevented

With `C=CCSCC=C` [DAS, diallyl sulfide] as the compound, how does the “Ach (acetaldehyde) levels” value (HepB5 cells) read?
The value was “suppressed”.

Which results are given for `CC(C)C[C@@H](C=O)NC(=O)[C@H](CC(C)C)NC(=O)[C@H](CC(C)C)NC(=O)OCc1ccccc1` [MG132] (Cbz-Leu-Leu-Leu-aldehyde)?
SIINFEKL-H2Kb presentation compared with controls (SIINFEKL-H2Kb complex [2]; MG132 20 μM): suppressed; SIINFEKL-TE hydrolysis (proteasome [3]; cytosols of HepB5 cells with MG132): completely blocked

With `C[C@H]1CCC/C=C/[C@@H]2C[C@H](O)C[C@H]2[C@H](O)/C=C/C(=O)O1` [brefeldin A] as the compound, how does the “SIINFEKL-H2Kb presentation compared with controls” value (SIINFEKL-H2Kb complex [2]; brefeldin A 5 μg/ml) read?
The value was “suppressed”.

What does the source list for `CCO` [ethanol]?
Effect on IFNγ induction of proteasome activity (proteasome [1]; 50 mM ethanol + IFNγ 10 ng/ml): blocked this induction; Cht-L proteasome activity reduced by (proteasome [1]; ethanol 50 mM, 3 experiments): 40%; Peptide hydrolysis in IFNγ-treated cells (proteasome [3]; cytosols of IFNγ-treated HepB5 cells exposed to 50 mM ethanol): suppressed; Induction of immunoproteasome subunit LMP2 by IFNγ (LMP2): prevented the induction; ADH activity (ADH): unchanged; Presentation of SIINFEKL-H2Kb complexes (SIINFEKL-H2Kb complex [4]; [8]): decreased; Antigen presentation in IFNγ-pretreated hepatocytes (SIINFEKL-H2Kb complex [4]; IFNγ 10 ng/ml, 50 mM ethanol): down-regulated; Induction of 20S proteasome activator PA28 expression by IFNγ (PA28): prevented the induction; STAT1 attachment to DNA (STAT1 [6]): suppressed; STAT1 phosphorylation (STAT1 [7]): no changes; Proteasome activity (proteasome [5]; [8]): decreased; Proteasome function in IFNγ-pretreated hepatocytes (proteasome [5]; IFNγ 10 ng/ml, 50 mM ethanol): down-regulated

Which “SIINFEKL-H2Kb presentation compared with controls” value (SIINFEKL-H2Kb complex [2]; geldanamycin 5 μM) does the source give for `COC1=C2C[C@@H](C)C[C@H](OC)[C@H](O)[C@@H](C)/C=C(\C)[C@H](OC(N)=O)[C@@H](OC)/C=C\C=C(/C)C(=O)NC(=CC1=O)C2=O` [geldanamycin] here?
Its value is “suppressed”.

For “IFNγ: recombinant interferon gamma, used at 10 ng/ml”, which “Effect on proteasome activity” value (proteasome [1]; IFNγ 10 ng/ml) is on record?
The value was “induced proteasome activity”.

What about the H2Kb positive cells (H2Kb) of the same compound?
Its H2Kb positive cells is “about 90%”.

Which SIINFEKL-H2Kb presentation restored (SIINFEKL-H2Kb complex [2]; IFNγ-treated HepB5 cells, co-treatment with ethanol and catalase) does the source give for catalase here?
The SIINFEKL-H2Kb presentation restored was “up to 80%”.
